Test results from ChEMBL document CHEMBL4699487, “Discovery of ONO-8590580: A novel, potent and selective GABA α negative allosteric modulator for the treatment of cognitive disorders” (Bioorg Med Chem Lett, 2020).

Experiments:
[1] = Cmax in rat at […], iv; type: ADME, organism-based; set-up: route intravenous, dose 0.44 mg/kg; settings: in vivo
[2] = Oral bioavailability in rat at 3 mg/kg; type: ADME, organism-based; settings: in vivo
[3] = Apparent permeability in MDCK-MDR1 cells; type: ADME, cell-based, Canis lupus familiaris; settings: dog
[4] = AUC infinity in rat at 3 mg/kg, po; type: ADME, organism-based; set-up: time infinity, route oral, dose 3 mg/kg; settings: in vivo
[5] = Cmax in rat at 3 mg/kg, po; type: ADME, organism-based; set-up: route oral, dose 3 mg/kg; settings: in vivo
[6] = AUC infinity in rat at […], iv; type: ADME, organism-based; set-up: route intravenous, time infinity, dose 0.44 mg/kg; settings: in vivo
[7] = Volume of distribution at steady state in rat at […], iv; type: ADME, organism-based; settings: in vivo, dose 0.44 mg/kg, read-out: Vdss

In the case of Cc1c(F)c(Nc2ccc(-c3cn(C)cn3)cn2)cc2c1ncn2CC1CC1, the Cmax [1] is reported as 278 ng/mL, the bioavailability [2] is reported as 65% and the Papp [3] is reported as 47 ×10⁻⁶ cm/s. It also gave an AUC(0-inf) [4] of 1780 ng·h/mL, a Cmax [5] of 520 ng/mL and an AUC(0-inf) [6] of 400 ng·h/mL. The Vd [7] was 1.7 L/kg.
